Measured values taken from patent US20100137396A1, “TREATMENT OF ESOPHAGEAL HIGH GRADE DYSPLASIA USING PHOTODYNAMIC THERAPY” (Health Research, Inc, priority 2007, published 2010).

Assays:
[1] = tested on: esophageal high grade dysplasia; test: Photodynamic therapy trials, response of high grade dysplasia (phase I/II HPPH, phase III PHOTOFRIN); assay type: in vivo, human; settings: for Response After First Treatment, CR (complete ablation of high grade dysplasia): after first PDT treatment, patients with high grade dysplasia; for Response After Second Treatment, expected cure rate / Response After Third Treatment, expected cure rate: calculated from first-treatment rate applied to remaining uncured
Protocol: The method of the invention includes the steps of: • injecting HPPH in a physiologically compatible medium into a patient having high grade esophageal dysplasia to provide a dose level of 3 through 5 mg/m^2 of body surface area, preferably 3 through 4 mg/m^2 of body surface area. • waiting for a time period of 24 through 60 hours to permit preferential absorption of the HPPH into the high grade dysplasia tissue, and • exposing the esophageal high grade dysplasia tissue to light at a wavelength of about 670±5 nm at an energy of from about 75 to about 200 Joules/cm, preferably 75 to about 150 Joules/cm.
Injection of the HHPH is preferably accomplished intravenously usually over a time period of 0.75 to 3 hours in a physiologically compatible medium. The time period is functionally dependent upon rate of infusion and dose level desired The concentration is preferably 0.5-through 1.5 mg/ml in medium and the medium is preferably 0.1% polysorbate 80, 2% ethyl alcohol and 5% glucose in normal saline.
Exposure is accomplished using a fiber optic carrying laser light emitted by a laser. The laser may be any suitable laser emitting light at the wavelength and energy desired, e.g. a dye or diode laser. Exposure may be adjusted by length of time of exposure and/or adjustment of light intensity.
(§1) Using the above parameters, a phase I/II trial using HPPH and a phase III trial using PHOTOFRIN™, the latter approved by the United States Food and Drug Administration, the following results for response of high grade dysplasia were obtained, with CR being defined as complete ablation of high grade dysplasia.

[2] = treatment concentration of 2 mg/kg; cited from earlier work
[3] = cited from earlier work
[4] = tested on: esophageal high grade dysplasia; settings: 2 mg/kg body weight, 630 nm, optimized light exposure; cited from earlier work
[5] = Normal tissue damage after photodynamic therapy (strictures; erythema, edema and necrosis); assay type: in vivo, human; settings: after first PDT treatment
Protocol: Nevertheless, PHOTOFRIN™ at an optimized dose level of 2 mg/kg body weight and activation at its preferential light absorption wavelength of 630 nm, and optimized light exposure results in a first treatment complete cure rate of about 32 percent and a two treatment complete cure rate of about 58 percent and a three treatment complete cure rate of about 77 percent. Unfortunately, the treatment also results in significant damage to surrounding normal tissue. Normal tissue damage for PHOTOFRIN™, as measured by percent of strictures at only a single treatment is about 12% and using other reported data concerning PHOTOFRIN™ treatment, is greater than 20 percent based upon toxicity as determined by the presence of erythema, edema and necrosis.
as §1

Substance | Response After First Treatment, CR (complete ablation of high grade dysplasia) [1] [% CR] | Response After Second Treatment, cure rate (observed) ([1]; after second PDT treatment) | Response After Second Treatment, expected cure rate [1] | Response After Third Treatment, cure rate (observed) ([1]; after third PDT treatment) | Response After Third Treatment, expected cure rate [1] | phototoxicity [2] | Normal tissue damage as measured by percent of strictures ([3]; at only a single treatment) | Normal tissue damage based upon toxicity as determined by the presence of erythema, edema and necrosis ([3]; other reported data concerning PHOTOFRIN treatment) | first treatment complete cure rate [4] | three treatment complete cure rate [4] | two treatment complete cure rate [4] | First Treatment Normal Tissue Damage, strictures [5] [% strictures] | effectiveness against high grade dysplasia and side effects compared with PHOTOFRIN ([1]; 3 to 5 mg/m^2 of body surface area, light at 670±5 nm)
porfimer sodium [PHOTOFRIN ™] | 32 | 58% cure rate (observed) | 54% expected cure rate (based upon | 77% cure rate (observed) | 71% expected cure rate (based upon | can cause serious phototoxicity | about 12% | greater than 20% | about 32% | about 77% | about 58% | 12 | 
3-(1-hexyloxy) ethyl-derivative of pyropheophorbide-a [HPPH] | 49 |  | 74% expected cure rate |  | 87% expected cure rate (based |  |  |  |  |  |  | 3 | more effective against high grade dysplasia with fewer side effects than PHOTOFRIN™
